Like-named read-outs stand apart in the source and are kept apart here.
Assays:
[1] = target: T1, recombinant human serum albumin (rHA) immobilised on silica (Homo sapiens, UniProt P02768); conditions: pH 7.5
albumin = albumin (Homo sapiens, UniProt P02768); conditions: binding to albumin; Peters et al.; Kragh-Hansen 1990; cited from earlier work
[2] = target: T1, recombinant human serum albumin (rHA) immobilised on silica; assay: Enantioselective HPLC analysis by the rHA-based column; conditions: 1-propanol/phosphate buffer (pH 7.5) 15/85 (v/v), 0.6 ml/min flow rate

albumin, sequence (P02768 25-609, species assumed): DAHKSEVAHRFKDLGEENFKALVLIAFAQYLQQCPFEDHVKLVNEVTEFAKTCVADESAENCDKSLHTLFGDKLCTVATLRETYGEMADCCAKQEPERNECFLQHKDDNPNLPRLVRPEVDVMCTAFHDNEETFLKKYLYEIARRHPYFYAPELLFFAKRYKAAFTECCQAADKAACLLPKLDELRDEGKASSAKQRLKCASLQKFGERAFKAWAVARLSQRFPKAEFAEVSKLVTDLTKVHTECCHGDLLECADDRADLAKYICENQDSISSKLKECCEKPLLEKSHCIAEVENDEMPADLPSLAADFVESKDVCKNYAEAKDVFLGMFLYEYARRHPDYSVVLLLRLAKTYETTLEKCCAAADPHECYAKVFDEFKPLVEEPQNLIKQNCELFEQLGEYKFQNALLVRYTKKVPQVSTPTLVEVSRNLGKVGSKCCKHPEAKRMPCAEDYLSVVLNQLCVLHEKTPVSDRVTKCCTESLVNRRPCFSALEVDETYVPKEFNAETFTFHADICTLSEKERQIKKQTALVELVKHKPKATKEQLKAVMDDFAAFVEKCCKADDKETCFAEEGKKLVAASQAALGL
T1 sequence (P02768 25-609): as the sequence (P02768 25-609, species assumed) above

| Molecule | affinity relative to the other enantiomer (antipode) (albumin) [fold] | further results |
| --- | --- | --- |
| CC(C)CC(NC(=O)c1ccccc1)C(=O)O (racemic) [N-benzoyl-DL-leucine] |  | enantioselectivity (α) [1]: 2.8 |
| O=C(O)CCC(=O)O[C@@H]1N=C(c2ccccc2)c2cc(Cl)ccc2NC1=O [(S)-oxazepam-hemisuccinate] | 35 |  |
| N[C@@H](Cc1c[nH]c2ccccc12)C(=O)O [L-tryptophan] | 100 |  |
| rac-lorazepam hemisuccinate |  | enantioselectivity (α) [2]: 5.3 |

Reference: patent publication US20050090652A1, “Highly homogenous serum albumin as chiral selector” (priority 2002, published 2005)
